Assays:
[1] = Simcyp PBPK model parameter
[2] = Blood and plasma binding and permeability PBPK input parameters; details: PBPK model parameter, fixed to observed value
[3] = Clinical DDI study part 2: plasma PK of molibresib alone and with rifampicin; details: for AUC0‐∞ / Cmax / t1/2 / tmax: part 2 n = 14; for AUC0‐∞ / Cmax / t1/2: geometric mean (CVb%); for tmax: median (range)
[4] = Clinical DDI study part 1: plasma PK of molibresib alone and with itraconazole; details: with itraconazole vs alone, dose-normalized
[5] = human urine; ref study BET115521; cited from earlier work
[6] = preclinical findings; cited from earlier work
[7] = Safety and tolerability in the DDI study; details: one subject, part 1, appeared on day 6
[8] = with rifampicin vs alone, part 2

**Q.** For `COc1ccc2c(c1)C(c1ccc(Cl)cc1)=N[C@@H](CC(N)=O)c1nnc(C)n1-2` [GSK3529246], which Compound type [1] is on record?
**A.** Monoprotic base

**Q.** What about the “Log P” value [1] of the same compound?
**A.** 1.6

**Q.** What about the pKb [1] of the same compound?
**A.** 7.36

**Q.** And the “Blood:plasma ratio” value [2]?
**A.** 0.9

**Q.** What about the Fu plasma ([2]; fraction unbound) of the same compound?
**A.** 0.2

**Q.** And the “increase in Cmax with rifampicin” value ([3]; part 2)?
**A.** 2 fold

**Q.** What about the “AUC0‐∞” value ([3]; molibresib 10 mg alone) of the same compound?
**A.** 622 (26) ng·h/mL

**Q.** And the Cmax ([3]; molibresib 10 mg alone)?
**A.** 49.0 (24) ng/mL

**Q.** What about the t1/2 ([3]; molibresib 10 mg alone) of the same compound?
**A.** 10.0 (22) h

**Q.** And the tmax ([3]; molibresib 10 mg alone)?
**A.** 2.0 (1.0‐4.1) h

**Q.** And the “AUC0‐∞” value ([3]; molibresib 20 mg + rifampicin)?
**A.** 1140 (26) ng·h/mL

**Q.** What about the Cmax ([3]; molibresib 20 mg + rifampicin) of the same compound?
**A.** 200 (24) ng/mL

**Q.** And the t1/2 ([3]; molibresib 20 mg + rifampicin)?
**A.** 10.0 (24) h

**Q.** And the tmax ([3]; molibresib 20 mg + rifampicin)?
**A.** 1.0 (0.53‐1.5) h

**Q.** And the “AUC0‐∞ Geometric Mean Ratio, Dosed Normalized (90%CI)” value [3, 8]?
**A.** 0.917 (0.850‐0.989)

**Q.** What about the “Cmax Geometric Mean Ratio, Dosed Normalized (90%CI)” value [3, 8] of the same compound?
**A.** 2.04 (1.78‐2.32)

**Q.** What about the “AUC Observed Geometric Mean Ratio (90%CI)” value ([4]; AUC 0 to infinity) of the same compound?
**A.** 0.29 (0.26‐0.32)

**Q.** And the “Cmax Observed Geometric Mean Ratio (90%CI)” value [4]?
**A.** 0.13 (0.11‐0.14)

**Q.** With `CCNC(=O)C[C@@H]1N=C(c2ccc(Cl)cc2)c2cc(OC)ccc2-n2c(C)nnc21` [Molibresib] as the compound, how does the “urinary excretion of unchanged drug” value [5] read?
**A.** approximately 9.5 % of the total dose administered

**Q.** And the “preclinical adverse effects on male reproductive organs” value [6]?
**A.** adverse effects on the testes including sperm retention and disorganized spermatogenesis

**Q.** With `CCC(C)n1ncn(-c2ccc(N3CCN(c4ccc(OCC5COC(Cn6cncn6)(c6ccc(Cl)cc6Cl)O5)cc4)CC3)cc2)c1=O` (stereo not drawn) [itraconazole] as the compound, how does the “adverse event considered related by the investigator” value [7] read?
**A.** mild elevations in liver enzymes
